Assay results: patent publication US20180141911A1, “Quinoline Derivatives for Diagnosis and Treatment of Alzheimer's Disease” (Northeastern University, priority 2015, published 2018)
Each block holds one compound with its values, some of them ahead of it.

Experiments:
tau and Aβ aggregates = details: post-mortem AD brain tissues; cited from earlier work
[1] = normal subjects, nonhuman primates; cited from earlier work

melting point: 120 °C
SMILES: Brc1cnc2c(OCc3ccccc3)cccc2c1

SMILES: Oc1cccc2cccnc12 [8-Hydroxyquinoline]
binding to tau and Aβ aggregates (tau and Aβ aggregates): bind to both tau and Aβ aggregates

SMILES: Oc1cccc2ccc([18F])nc12 [[^18F]-CABS13, [^18F]-2-fluoro-8-hydroxyquinoline]
brain penetration [1]: poor brain penetration
conversion to a polar metabolite [1]: rapid, high conversion to a polar metabolite

SMILES: Oc1c(I)cc(Cl)c2cccnc12 [clioquinol]
binding to tau and Aβ aggregates (tau and Aβ aggregates): bind to both tau and Aβ aggregates
